Measured values reported in the NIST ThermoML archive (doi:10.1021/je050434f).

How the values were obtained:
[1] = refractive index (Na D-line) (dimensionless); details: 101.33 kPa, Liquid, Abbe refractometer
[2] = for speed of sound / mass density / viscosity: 101.33 kPa, Liquid; for speed of sound: Sing-around technique in a fixed-path interferometer; for mass density: Vibrating tube method; for surface tension liquid-gas: Pendant drop shape; for viscosity: Capillary tube (Ostwald / Ubbelohde) method

COS(=O)(=O)[O-].Cn1cc[n+](C)c1 [1,3-dimethylimidazolium methylsulfate]
Details | mass density, [2] [kg/m3] | refractive index, [1] | speed of sound, [2] [m/s] | surface tension liquid-gas, [2] [mN/m] | viscosity, [2] [mPa·s]
283.15 K | 1338.24 | 1.48659 | 1851 | – | –
288.15 K | 1334.54 | 1.48525 | 1838 | 60.9 | –
293.15 K | 1330.88 | 1.48392 | 1826 | 60.3 | 92.76
298.15 K | 1327.25 | 1.4827 | 1813 | 59.8 | 72.91
303.15 K | 1323.65 | 1.48129 | 1801 | 59.5 | 58.35
308.15 K | 1320.09 | 1.47999 | 1789 | 59.1 | –
313.15 K | 1316.57 | 1.47867 | 1777 | 58.9 | 39.21
318.15 K | 1313.05 | 1.47726 | 1765 | – | –
323.15 K | 1309.55 | 1.47593 | 1753 | – | 27.78
328.15 K | 1306.06 | 1.47421 | 1742 | – | –
333.15 K | 1302.59 | 1.47294 | 1730 | – | 21.01
338.15 K | 1299.14 | 1.47154 | 1719 | – | –
343.15 K | 1295.7 | 1.47027 | 1708 | – | 16.01
